Data on one molecule can be found in US20090286836A1, “Novel Compounds” (priority 2008, published 2009).

The target of one experiment is T1, human NK2 receptor (Homo sapiens, UniProt P21452).
T1 construct: expressed in transfected cells; host or cells: human U2OS cells transiently transduced with recombinant BacMam virus
T1 sequence (P21452 1-398): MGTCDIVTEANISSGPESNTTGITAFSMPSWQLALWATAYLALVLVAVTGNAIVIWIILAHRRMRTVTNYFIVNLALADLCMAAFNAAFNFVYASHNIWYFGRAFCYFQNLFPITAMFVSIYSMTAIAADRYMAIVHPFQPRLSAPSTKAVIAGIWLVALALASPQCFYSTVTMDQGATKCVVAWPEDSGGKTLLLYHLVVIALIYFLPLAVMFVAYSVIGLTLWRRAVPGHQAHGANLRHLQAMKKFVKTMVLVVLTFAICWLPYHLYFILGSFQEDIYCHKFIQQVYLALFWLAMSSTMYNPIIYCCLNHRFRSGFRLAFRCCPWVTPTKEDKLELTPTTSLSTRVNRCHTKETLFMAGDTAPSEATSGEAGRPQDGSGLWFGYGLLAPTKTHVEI
In words: NK functional potency, FLIPR calcium release in U2OS cells (NKA as ligand). The conditions noted are these: BacMam human NK2, average of at least two determinations, read-out: NK2 pKi (functional potency, fpKi) (converted). The experiment is classed as cell-based. From the text:
Compounds of the invention were further characterised in a functional assay using FLIPR technology for the determination of their effect to inhibit the intracellular calcium release induced by interaction of NK receptors with its perspective ligands. Human U2OS cells transiently transduced with recombinant BacMam virus expressing human NK1, NK2 and NK3 receptors were used in the studies (see J. P. Condreay et al, Proc. Natl. Acad. Sci. USA 1999, 96(1): 127-132). Briefly, U2OS cells were harvested from tissue culture flasks, re-suspended to a cell density of 200-300K/ml and mixed with recombinant BacMam virus carrying NKR gene in a virus/cell ratio of 1% (v/v). 10K-15K cells/well were then seeded in 384-well Greiner bio-one plate in culture medium (DMEM with 10% FBS), incubated overnight in 5% CO2 at 37° C. […] Finally, 10 uL/well of NKR ligands in assay buffer containing 0.1% BSA was added to the cells and fluorescence signal read on a FLIPR system. […] IC50 values of each compound were determined by an 11-point 3×-dilution inhibition curve. The potency each antagonist (fpKi) was calculated from pIC50 by the Cheng-Prusoff equation using EC50 of ligand determined in a separate experiment. […]

The next experiment has as its target T2, NK1 receptor (Meriones unguiculatus, UniProt Q5DUB1).
T2 construct: from tissue; host or cells: living gerbils; central nervous system (icv agonist GR73632)
The experiment can be described thus: gerbil foot tapping model (GR73632-induced, icv). It is filed as in vivo. From the text:
The ability of the compounds of the invention to penetrate the central nervous system and to bind at the NK1 receptor may be determined using the gerbil foot tapping model as described by Rupniak & Williams, Eur. Jour. of Pharmacol., 1994. Intracerebroventricular (icv) administration of the NK1 receptor agonist GR73632 (R. M. Hagan et al., Neuropeptides 1991, 19 (2), 127-135) a characteristic hind leg foot tapping (GFT) response in gerbils which can be inhibited by potent NK1 receptor antagonists. The gerbil foot tapping paradigm was carried out as follows; gerbils were dosed with compound of the invention, and following an appropriate pre-treatment time were anaesthetised using isofluorane/oxygen mixture. The skull was then exposed and 5 ul of GR73632 ([…].) was injected by insertion of a cuffed 25G needle to a depth of 4 mm below bregma, directly into the lateral ventricle (intracerebroventricular dosing). Immediately following the injection, gerbils were placed individually into a clear observation box to recover.
Upon the gerbil regaining its righting reflex, the duration of repetitive hind foot tapping was recorded over a 5 minute period. The dose of the test compound required to inhibit by 50% the tapping induced by the NK1 agonist expressed as mg/kg is referred to as the ID50 values.

In a further experiment the target is T3, human NK3 receptor (Homo sapiens, UniProt P29371).
T3 construct: expressed in transfected cells; host or cells: human U2OS cells transiently transduced with recombinant BacMam virus
T3 sequence (P29371 1-465): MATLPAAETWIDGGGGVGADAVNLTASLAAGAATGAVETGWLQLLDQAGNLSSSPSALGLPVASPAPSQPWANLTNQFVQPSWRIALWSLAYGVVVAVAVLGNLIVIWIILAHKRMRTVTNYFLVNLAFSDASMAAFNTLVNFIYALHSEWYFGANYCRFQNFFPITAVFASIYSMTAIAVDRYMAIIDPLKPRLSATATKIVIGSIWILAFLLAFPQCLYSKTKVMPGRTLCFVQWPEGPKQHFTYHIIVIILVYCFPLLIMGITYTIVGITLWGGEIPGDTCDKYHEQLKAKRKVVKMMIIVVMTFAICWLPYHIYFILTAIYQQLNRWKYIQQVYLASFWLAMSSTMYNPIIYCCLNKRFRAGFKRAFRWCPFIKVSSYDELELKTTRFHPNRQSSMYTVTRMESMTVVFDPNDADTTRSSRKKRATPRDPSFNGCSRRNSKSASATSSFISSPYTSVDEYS
The experiment can be described thus: NK functional potency, FLIPR calcium release in U2OS cells (NKB as ligand). The experiment is classed as cell-based. The conditions noted are these: BacMam human NK3, average of at least two determinations, read-out: NK3 pKi (functional potency, fpKi) (converted). From the text: Compounds of the invention were further characterised in a functional assay using FLIPR technology for the determination of their effect to inhibit the intracellular calcium release induced by interaction of NK receptors with its perspective ligands. Human U2OS cells transiently transduced with recombinant BacMam virus expressing human NK1, NK2 and NK3 receptors were used in the studies (see J. P. Condreay et al, Proc. Natl. Acad. Sci. USA 1999, 96(1): 127-132). Briefly, U2OS cells were harvested from tissue culture flasks, re-suspended to a cell density of 200-300K/ml and mixed with recombinant BacMam virus carrying NKR gene in a virus/cell ratio of 1% (v/v). 10K-15K cells/well were then seeded in 384-well Greiner bio-one plate in culture medium (DMEM with 10% FBS), incubated overnight in 5% CO2 at 37° C. After aspirating the medium, cells were loaded 18-24 hr later with cytoplasmic calcium indicator Fluo-4 Calcium 3 dye (Molecular Devices Co.) in 30 uL/well buffer (Hank's balanced salts with 20 mM Hepes) and incubated in CO2 at 37° C. for 60 minutes. 10 uL/well assay buffer (Hank's balanced salts with 20 mM Hepes) containing different concentrations of compounds were then added to the cells for 30 minutes incubation at 37° C. Finally, 10 uL/well of NKR ligands in assay buffer containing 0.1% BSA was added to the cells and fluorescence signal read on a FLIPR system. Substance P, NKA and NKB peptides were used as the ligands for NK1, NK2 and NK3 receptor, respectively. IC50 values of each compound were determined by an 11-point 3×-dilution inhibition curve. The potency each antagonist (fpKi) was calculated from pIC50 by the Cheng-Prusoff equation using EC50 of ligand determined in a separate experiment.
The compounds of Example 11, Examples 2, 4 and 6 were tested in the NK functional potency assay.

Counter-ions that a name gives are not always drawn.

T2 sequence (Q5DUB1 whole entry): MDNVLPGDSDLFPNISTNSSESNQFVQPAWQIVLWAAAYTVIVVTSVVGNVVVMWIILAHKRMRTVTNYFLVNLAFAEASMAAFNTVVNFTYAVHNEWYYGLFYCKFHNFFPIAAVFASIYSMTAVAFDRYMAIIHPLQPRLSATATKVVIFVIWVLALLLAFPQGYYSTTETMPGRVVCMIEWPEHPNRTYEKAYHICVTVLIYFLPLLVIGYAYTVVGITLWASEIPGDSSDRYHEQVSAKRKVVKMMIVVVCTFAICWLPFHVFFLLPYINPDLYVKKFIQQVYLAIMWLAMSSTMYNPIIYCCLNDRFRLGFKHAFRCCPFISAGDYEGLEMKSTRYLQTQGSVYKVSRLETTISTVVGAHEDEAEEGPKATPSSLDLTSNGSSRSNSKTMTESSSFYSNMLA

Regarding `Cc1cc(F)ccc1-c1cc([C@H]2CC[C@](C)(C(N)=O)N2)ncc1N(C)C(=O)C(C)(C)c1cc(C(F)(F)F)cc(C(F)(F)F)c1` [Example 11, (5R)-5-[5-[{2-[3,5-bis(trifluoromethyl)phenyl]-2-methylpropanoyl}(methyl)amino]-4-(4-fluoro-2-methylphenyl)-2-pyridinyl]-2-methyl-D-prolinamide bis-hydrochloride], the Ki at human NK2 receptor is over 1000 nM; on human NK3 receptor, 31.6 nM. In addition, the “GR73632-induced Foot Tapping behaviour” value at NK1 receptor (gerbil, 0.3, 1.0 and 3.0 mg/kg p.o (P<0.01)) is listed as “significantly attenuated”. The “ID50 as plasma concentration” value on NK1 receptor (gerbil, p.o., GR73632 icv) was “approximately 5 ng/ml plasma”. On NK1 receptor (po, gerbil, p.o., GR73632 icv, read-out: ID50, dose inhibiting by 50% the foot tapping induced by the NK1 agonist), the ED50 is about 0.2 mg/kg.
